The values below are quoted from earlier work in PMC10879279 (Frontiers in Behavioral Neuroscience, 2024).

One data set concerns animal models. The conditions noted are these: ref Wooters and Bardo, 2011; cited from earlier work. From the text: (§1) Delay discounting tasks are also used to assess impulsive behavior in human studies, giving an insight into causal mechanism of addictions such as substance abuse and gambling ([Reynolds, 2006]; [de Wit, 2009]; [Hodgins and Holub, 2015]), and ADHD ([Barkley et al., 2001]; [Scheres et al., 2008]; [Shiels et al., 2009]). Impulsivity in the human and rodent delay discounting task derives form the similar neural substrates: lower D2/3 receptor availability in ventral striatum of rats and pathological gamblers, individuals with methamphetamine dependence, and alcohol use disorder ([Voon and Dalley, ...

The next data set concerns human. The conditions noted are these: ref Shiels et al., 2009; cited from earlier work.
Source text: as §1

In a further data set the test system is ADHD patients. The conditions noted are these: ref Bodey, 2011; cited from earlier work. From the text:
To sum up, the development of new medications for disorders with an excessive impulsivity as a major component is of high interest for both academy and industry. Addictions, including substance use disorder and gambling, faces the unmet need for novel medicines ([Rash et al., 2016]). In case of ADHD there is also a need for new medications with novel mechanisms of action since currently approved drugs show a non-response or lack efficacy in a significant number of patients ([Mechler et al., 2022]). Routinely used stimulant methylphenidate is efficient in up to 70% of cases ([Bodey, 2011]), and ...

In the case of `COC(=O)C(c1ccccc1)C1CCCCN1` (stereo not drawn) [methylphenidate], the “discounting of delayed rewards (in words)” value in the data set with animal models and with human was “reduced discounting of delayed rewards” throughout. In the data set with ADHD patients, the “efficient in percent of cases” value was “up to 70%”.
